Values after ≈ are worked out from the molar mass of the structure shown. Read-outs that look alike come from different tables or passages of the source.

The values below come from patent publication US20230172899A1, “CANNABINOID COMPOSITIONS” (priority 2020, published 2023).

Experiment [1] deals with store-operated calcium entry (SOCE) in HEK293 cells. As to the kind of experiment: SOCE inhibition, Fura-2 Ca2+ bioassay, thapsigargin-induced, HEK293 cells. The experiment is classed as cell-based, human. The note with it: for Inhibitory effect in immune cells compared with non-immune HEK293 cells: Jurkat vs HEK293 screening, 10 μM; for IC50: Homo sapiens.
Experiment [2] relates to store-operated calcium entry (SOCE) in Jurkat T cells. As to the kind of experiment: SOCE inhibition, Fura-2 Ca2+ bioassay, thapsigargin-induced, Jurkat cells. The format is cell-based, human. The following applies: for IC50: Homo sapiens; for Combinatory effect on SOCE inhibition when paired with CBGA: isobolographic analysis, pairs expected to inhibit 50%.
Experiment [3] has as its system store-operated calcium entry (SOCE) in U937 monocytes. Kind of experiment: SOCE inhibition, Fura-2 Ca2+ bioassay, thapsigargin-induced, U937 cells. The experiment is classed as cell-based, human. The following applies: for IC50: Homo sapiens.
The subject of experiment [4] is store-operated calcium entry (SOCE) in Luva human mast cells. Kind of experiment: SOCE inhibition, Fura-2 Ca2+ bioassay, thapsigargin-induced, Luva cells. The experiment is classed as cell-based. The note with it: for IC50: Homo sapiens, Mast cell, read-out: IC50 SOCE Luva.
Experiment [5] has as its system store-operated calcium entry (SOCE) in RBL-2H3 rat mast cells. As to the kind of experiment: SOCE inhibition, Fura-2 Ca2+ bioassay, thapsigargin-induced, RBL-2H3 cells. The format is cell-based. The following applies: for IC50: Rattus norvegicus.
Experiment [6] relates to store-operated calcium entry (SOCE) in THP-1 cells. As to the kind of experiment: SOCE inhibition, combinatory (isobolographic) analysis, THP-1 cells. The format is cell-based, human. The note with it: THP-1 cells; isobolographic analysis, pairs expected to inhibit 50%. How it is done:
Bar graphs shown in FIGS. 10A-10Z and 10BB display SOCE amplitudes calculated from area under the curve (AUC) of the SOCE signals and normalized to SOCE in the presence of gadolinium. Combinatory effects were assessed using an isobolographic analysis approach, where CBGA was paired with another cannabinoid using concentrations of CBGA corresponding to 50%, 40%, 30%, 20%, 10%, and 0% inhibition (as derived from the IC50 curves of FIGS. 9A-9P) and combined with concentrations of the paired cannabinoid, so that each combination would be expected to inhibit 50% of the Ca^2+ signal (e.g., the CBGA concentration causing 50% inhibition was tested alone without the other cannabinoid, the CBGA concentration expected to block 40% of the signal was combined with the concentration of the other cannabinoid expected to inhibit 10%, the CBGA concentration expected to block 30% of the signal was combined with the concentration of the other cannabinoid expected to inhibit 20%, and so on). Simple additivity of cannabinoid pairs would be expected to inhibit the Ca^2+ signal by 50%. All the data in these experiments represent an average of 3 independent runs and the values are graphed as mean values±SEM.

Setting [7] is: Jurkat, read-out: IC50 SOCE Jurkat, Table 5, individual cannabinoids, Jurkat.
[8] abbreviates: U-937, read-out: IC50 SOCE U937, Table 5, individual cannabinoids, U937.
[9] abbreviates: RBL-2H3, read-out: IC50 SOCE RBL-2H3, Table 5, individual cannabinoids, RBL-2H3.
Setting [10] is: HEK293, read-out: IC50 SOCE HEK-293, Table 5, individual cannabinoids, HEK-293.
Setting [11] is: Jurkat, read-out: IC50 SOCE Jurkat.
[12] abbreviates: U-937, read-out: IC50 SOCE U937.
The mark [13] stands for this setting: RBL-2H3, read-out: IC50 SOCE RBL-2H3.
Setting [14] is: HEK293, read-out: IC50 SOCE HEK-293.

Take `CCCCCc1cc(O)c2c(c1)OC(C)(C)[C@@H]1CCC(C(=O)O)=C[C@@H]21` [11-nor-COOH-Δ9-THC, (6aR,10aR)-1-hydroxy-6,6-dimethyl-3-pentyl-6a,7,8,10a-tetrahydro-6H-benzo[c]chromene-9-carboxylic acid]: the “Inhibitory effect in immune cells compared with non-immune HEK293 cells” value in experiment [1] is recorded as “selective”.
As to `CCCCCc1cc(O)c2c(c1)OC(C)(CCC=C(C)C)C=C2` (stereo not drawn) [CBC, 2-methyl-2-(4-methylpent-3-en-1-yl)-7-pentyl-2H-chromen-5-ol], the “IC50 SOCE Jurkat” value in experiment [2] (Table 5, individual cannabinoids, Jurkat) was 13.06 µg/mL (≈ 41.5 µM). For the same molecule, in experiment [3] (Table 5, individual cannabinoids, U937), the “IC50 SOCE U937” value was 40.8 µg/mL (≈ 130 µM). The “IC50 SOCE Luva” value in experiment [4] (Table 5, individual cannabinoids, Luva) was more than 50 µg/mL. For the same molecule, the “IC50 SOCE RBL-2H3” value in experiment [5] (Table 5, individual cannabinoids, RBL-2H3) was 26.8 µg/mL (≈ 85.2 µM). Further, in experiment [1] (Table 5, individual cannabinoids, HEK-293), the “IC50 SOCE HEK-293” value was 31.6 µg/mL (≈ 100 µM).
With `CCCCCc1cc2c(c(O)c1C(=O)O)C=C[C@@](C)(CCC=C(C)C)O2` [CBCA, (R)-5-hydroxy-2-methyl-2-(4-methylpent-3-en-1-yl)-7-pentyl-2H-chromene-6-carboxylic acid], the IC50 is 1.13 µg/mL (≈ 3.15 µM) in experiment [2] (setting [7]); more than 50 µg/mL in experiment [3] (setting [8]); 29.1 µg/mL (≈ 81.3 µM) in experiment [4]; more than 50 µg/mL in experiment [5] (setting [9]); more than 50 µg/mL in experiment [1] (setting [10]). Further, the “Combinatory effect on SOCE inhibition when paired with CBGA” value (“Combinatory effect on SOCE inhibition” for short) in experiment [2] (Jurkat cells) is recorded as “Simple additive behavior”.
For `C=C(C)[C@@H]1CCC(C)=C[C@H]1c1c(O)cc(CCCCC)c(C(=O)O)c1O` [CBDA, (1′R,2′R)-2,6-dihydroxy-5′-methyl-4-pentyl-2′-(prop-1-en-2-yl)-1′,2′,3′,4′-tetrahydro-[1,1′-biphenyl]-3-carboxylic acid], the IC50 in experiment [2] (setting [7]) stood at 4.07 µg/mL (≈ 11.4 µM); in experiment [3] (setting [8]), 5.83 µg/mL (≈ 16.3 µM); in experiment [4], 5.17 µg/mL (≈ 14.4 µM); in experiment [5] (setting [9]), 2.4 µg/mL (≈ 6.69 µM); in experiment [1] (setting [10]) it was 16.1 µg/mL (≈ 45 µM). Besides, the “Combinatory effect on SOCE inhibition” value in experiment [2] (Jurkat cells) is “inhibit less than predicted”; in experiment [6] it was “sub-additive combinatory effects”. Also, the “Inhibitory effect in immune cells compared with non-immune HEK293 cells” value in experiment [1] was “selective”.
In the case of `C=C(C)[C@@H]1CCC(C)=C[C@H]1c1c(O)cc(CCC)cc1O` [CBDV, (1′R,2′R)-5′-methyl-2′-(prop-1-en-2-yl)-4-propyl-1′,2′,3′,4′-tetrahydro-[1,1′-biphenyl]-2,6-diol], the IC50 in experiment [2] (setting [7]) was 6 µg/mL (≈ 20.9 µM); in experiment [3] (setting [8]) it was 17.5 µg/mL (≈ 61.1 µM); in experiment [4] it was more than 50 µg/mL; in experiment [5] (setting [9]) it was 0.17 µg/mL (≈ 0.594 µM); in experiment [1] (setting [10]), 30.2 µg/mL (≈ 105 µM). In experiment [2] (Jurkat cells), the “Combinatory effect on SOCE inhibition” value is reported as “inhibit less than predicted”. Moreover, the “Inhibitory effect in immune cells compared with non-immune HEK293 cells” value in experiment [1] is reported as “selective”.
As to `C=C(C)[C@@H]1CCC(C)=C[C@H]1c1c(O)cc(CCC)c(C(=O)O)c1O` [CBDVA, (1′R,2′R)-2,6-dihydroxy-5′-methyl-2′-(prop-1-en-2-yl)-4-propyl-1′,2′,3′,4′-tetrahydro-[1,1′-biphenyl]-3-carboxylic acid], the IC50 stood at 11.3 µg/mL (≈ 34.2 µM) in experiment [2] (setting [11]); 10.6 µg/mL (≈ 32.2 µM) in experiment [3] (setting [12]); 8.45 µg/mL (≈ 25.6 µM) in experiment [4]; 11.3 µg/mL (≈ 34.3 µM) in experiment [5] (setting [13]); 23.5 µg/mL (≈ 71.2 µM) in experiment [1] (setting [14]). The “Combinatory effect on SOCE inhibition” value in experiment [2] (Jurkat cells) is “inhibit less than predicted”.
`CCCc1cc(O)c(C/C=C(\C)CCC=C(C)C)c(O)c1C(=O)O` [CBGVA, (E)-3-(3,7-dimethylocta-2,6-dien-1-yl)-2,4-dihydroxy-6-propylbenzoic acid]: the IC50 in experiment [2] (setting [7]) worked out at 1.15 µg/mL (≈ 3.46 µM); in experiment [3] (setting [8]), 2.86 µg/mL (≈ 8.6 µM); in experiment [4], 2.6 µg/mL (≈ 7.82 µM); in experiment [5] (setting [9]) it was 2.53 µg/mL (≈ 7.61 µM); in experiment [1] (setting [10]) it was 4.15 µg/mL (≈ 12.5 µM). Further, the “Combinatory effect on SOCE inhibition” value was “Simple additive behavior” in experiment [2] (Jurkat cells) and “sub-additive combinatory effects” in experiment [6].
Take `CCCCCc1cc(O)c2c(c1)O[C@]1(C)CCC3[C@@H]1[C@@H]2C3(C)C` (stereo partly drawn) [CBL, (1aS,1a1R,3aR,8bR)-1,1,3a-trimethyl-6-pentyl-1a,1a1,2,3,3a,8b-hexahydro-1H-4-oxabenzo[f]cyclobuta[cd] inden-8-ol]: the IC50 in experiment [2] (setting [7]), in experiment [3] (setting [8]), in experiment [4], in experiment [5] (setting [9]) and in experiment [1] (setting [10]) was more than 50 µg/mL throughout. The “Combinatory effect on SOCE inhibition” value in experiment [2] (Jurkat cells) is “Simple additive behavior”.
`CCCCCc1cc2c(c(O)c1C(=O)O)[C@@H]1[C@H]3C(CC[C@@]3(C)O2)C1(C)C` (stereo partly drawn) [CBLA, (1aS,1a1R,3aR,8bR)-8-hydroxy-1,1,3a-trimethyl-6-pentyl-1a,1a1,2,3,3a,8b-hexahydro-1H-4-oxabenzo[f]cyclobuta[cd] indene-7-carboxylic acid]: the IC50 in experiment [2] (setting [11]) is 9.29 µg/mL (≈ 25.9 µM); in experiment [3] (setting [12]) it was 28.3 µg/mL (≈ 79 µM); in experiment [4], 12.4 µg/mL (≈ 34.5 µM); in experiment [5] (setting [13]), 20.9 µg/mL (≈ 58.2 µM); in experiment [1] (setting [14]), more than 50 µg/mL. Moreover, in experiment [2] (Jurkat cells), the “Combinatory effect on SOCE inhibition” value is reported as “inhibit less than predicted”.
Consider `CCCCCc1cc2c(c(O)c1C(=O)O)-c1cc(C)ccc1C(C)(C)O2` [CBNA, 1-hydroxy-6,6,9-trimethyl-3-pentyl-6H-benzo[c]chromene-2-carboxylic acid], for which the IC50 in experiment [2] (setting [7]) was 0.99 µg/mL (≈ 2.79 µM); in experiment [3] (setting [8]), 19.2 µg/mL (≈ 54.1 µM); in experiment [4], 7.25 µg/mL (≈ 20.5 µM); in experiment [5] (setting [9]) it was more than 50 µg/mL; in experiment [1] (setting [10]), 22.5 µg/mL (≈ 63.5 µM). In addition, the “Combinatory effect on SOCE inhibition” value is reported as “Simple additive behavior” in experiment [2] (Jurkat cells) and “sub-additive combinatory effects” in experiment [6].
Consider `C=C(C)c1ccc(C)cc1-c1c(O)cc(CCCCC)cc1O` [CBND, 5′-methyl-4-pentyl-2′-(prop-1-en-2-yl)-[1,1′-biphenyl]-2,6-diol], for which the IC50 is 6.7 µg/mL (≈ 21.6 µM) in experiment [2] (setting [7]); 24 µg/mL (≈ 77.3 µM) in experiment [3] (setting [8]); more than 50 µg/mL in experiment [4]; 19 µg/mL (≈ 61.2 µM) in experiment [5] (setting [9]); 32.8 µg/mL (≈ 106 µM) in experiment [1] (setting [10]). Further, the “Combinatory effect on SOCE inhibition” value in experiment [2] (Jurkat cells) is listed as “Simple additive behavior”.
Turning to `CCCCCc1cc(OC)c2c(c1)OC(C)(C)c1ccc(C)cc1-2` [CBNM, 1-methoxy-6,6,9-trimethyl-3-pentyl-6H-benzo[c]chromene], the IC50 in experiment [2] (setting [7]), in experiment [3] (setting [8]), in experiment [4], in experiment [5] (setting [9]) and in experiment [1] (setting [10]) was more than 50 µg/mL in each case.
With `CCCc1cc(O)c2c(c1)OC(C)(C)[C@@H]1CCC(C)=C[C@@H]21` [THCV, (6aR,10aR)-6,6,9-trimethyl-3-propyl-6a,7,8,10a-tetrahydro-6H-benzo[c]chromen-1-ol], the IC50 in experiment [2] (setting [7]) was 10.7 µg/mL (≈ 37.5 µM); in experiment [3] (setting [8]), more than 50 µg/mL; in experiment [4], more than 50 µg/mL; in experiment [5] (setting [9]), more than 50 µg/mL; in experiment [1] (setting [10]), more than 50 µg/mL. Further, the “Combinatory effect on SOCE inhibition” value in experiment [2] (Jurkat cells) is reported as “stronger than predicted inhibitions”. Further, in experiment [1], the “Inhibitory effect in immune cells compared with non-immune HEK293 cells” value is given as “selective”.
Consider `CCCCCc1cc(O)c2c(c1)OC(C)(C)[C@@H]1CCC(C)=C[C@@H]21` [Δ9-THC, (6aR,10aR)-6,6,9-trimethyl-3-pentyl-6a,7,8,10a-tetrahydro-6H-benzo[c]chromen-1-ol], for which the IC50 was more than 50 µg/mL in experiment [2] (setting [7]); more than 50 µg/mL in experiment [3] (setting [8]); more than 50 µg/mL in experiment [4]; 0.97 µg/mL (≈ 3.08 µM) in experiment [5] (setting [9]); more than 50 µg/mL in experiment [1] (setting [10]). For the same molecule, in experiment [2] (Jurkat cells, compounds at 10 μM, 1 μM thapsigargin), the “Effect on SOCE (Ca2+ signals), pure compounds” value is “low to no effects”. For the same molecule, the “IC50 on SOCE relative to acidic variations” value in experiment [2] (Jurkat cells, dose response 0 to 30 μM) is given as “higher IC50 than their acidic variations”.

Broadly, the IC50 is the midpoint of a concentration-inhibition curve.
